Values joined by “and” are separate entries in the source; they are usually repeats but may differ in a detail not shown here. Identical values can stand only once. “Also recorded” adds a separate entry of the source.
Tests used:
[1] = Four freeze-thaw cycle stability in urine; format: physicochemical, human; conditions: urine from PDE patients
Experimental: (§1) As a primary aim of this research was to evaluate biomarkers suitable for newborn screening, we analyzed blood spots (Whatman 903 Lot W-041) from two subjects and controls. […] A freeze-thaw study and a 4-month stability study was done in urine samples from subjects 1 and 2 (Table 4).
(§2) To quantify 6-Oxo-PIP and Δ^1-P6C/P6CH, we prepared standard curves ranging from 0.5-500 μM from control urine (FIGS. 5 and 6). In a freeze-thaw study (6-Oxo-PIP, FIG. 6; and P6C/P6CH, FIG. 7) and a 4-month stability study (FIG. 8 and FIG. 9B), fresh urine samples (400 μL) were aliquoted into 1.5 mL Eppendorf tubes and stored either at room temperature (22±2° C.), regular freezer (−13±3° C.) or deep freezer (−77±3° C.) and sampled over a four-month period. First, both biomarkers Δ^1-P6C/P6CH and 6-Oxo-PIP were stable via four freeze-thaw cycles (6-Oxo-PIP FIG. 6; and Δ^1-P6C/P6CH FIG. 7). The initial 6-Oxo-PIP concentrations observed with patient one and patient two were 298±23 and 440±4 μM, respectively. […] The original concentrations of Δ^1-P6C/P6CH for patient one and two were 16.1±1.9 μM and 27.1±2.0 μM, respectively, an order of magnitude less than 6-oxo-PIP. […] Even after 126 days storage, roughly half of the Δ^1-P6C/P6CH from the original sample (day 1) remained.

[2] = Cytosolic, S9, mitochondrial and plasma metabolism of lysine metabolites; format: in vitro ADME, human
Experimental: Cytosolic and mitochondrial metabolism of lysine metabolites: Human liver cytosol 100 μL (10 mg/mL) or S9 fraction 100 μL (20 mg/mL) and 100 μL NAD+ (1.2 mM final) in 400 μL PBS pH 7.4 were preincubated at 37° C. for 5 min, followed by addition of 100 μL Δ1-P6C (100 μM); 100 μL samples were taken at 0.5, 5, 20 and 50 min, added to 300 μL 1:1 MeOH:ACN and analysed by LC-MS/MS. To probe potential phase II metabolism, 100 μL human liver microsomes (20 mg protein/mL) were similarly incubated with 4.0 mM UDPGA.
Human liver mitochondria were freshly prepared by homogenization of a human liver sample with a Teflon pestle in 5% weight to volume Zheng buffer (Zheng et al. 1990, Biochim Biophys Acta 1019:1-10), and after centrifugation at 5600 g for 5 min, the supernatant was transferred to a centrifuge tube; this procedure was repeated on the resuspended pellet a second time. Both supernatants were combined, centrifuged at 37,500 g for 5 min, the resulting pellet resuspended in Zheng buffer, homogenized and similarly pelleted again, and resuspended in 300 μL Zheng buffer to provide a mitochondrial preparation, with protein concentration determined using the Bio-Rad Protein Assay. To access the mitochondrial matrix, the homogenate was subjected to 3 freeze-thaw cycles, followed by 2×7 bursts of sonication on ice using a Branson 450 digital sonifier with a 2-inch cup horn at 30% amplitude. Of this mitochondrial preparation 100 μL was similarly incubated with Δ1-P6C and analyzed as above.
Albeit small, the formation of 6-oxo-PIP raises the possibility of a second pathway. […] Thus, this alternative mechanism to AAA is not a major pathway.

[3] = 4-month biomarker stability study in urine samples; format: physicochemical, human; conditions: for concentration: PDE urine; for decrease at 126 days: room temperature
Excerpt: Liquid chromatography tandem mass spectrometry experiments: Lysine metabolites were first analyzed based on previously published liquid chromatography tandem mass spectrometry (LC-MS/MS) methods (Struys, Jakobs 2007, Molecular Genetics and Metabolism 91:405; Yuzyuk et al. 2016, J Chromatogr B Analyt Technol Biomed Life Sci, 1017-1018:145-52). As the goal of this study was to replicate current newborn screening modalities, we focused on a non-derivatized MS/MS analytical method (Nagy et al. 2003, Rapid Commun Mass Spectrom 17:983-90). Samples were analyzed via electrospray ionization in positive ion mode (ESI+) using an Applied Biosystems Sciex 4000 (Applied Biosystems) equipped with a Shimadzu HPLC (Shimadzu Scientific Instruments) and a Leap auto-sampler (LEAP Technologies). Methanol (MeOH):acetonitrile (ACN) 200 μL 1:1 mixture was added to 100 μL of plasma, blood, urine, CSF or standard materials. Plasma and blood samples were centrifuged at 10,000 rpm and the supernatants used. Urine and CSF samples required no additional processing. […] Samples were analyzed using the following conditions: i) ion-spray voltage of 5500 V; ii) temperature, 450° C.; iii) collision using nitrogen gas with curtain gas (CUR) set at 10 and collisionally activated dissociation (CAD) set at 12; iv) ion source gas one (GS1) and two (GS2) were set at 30; v) entrance potential was set at 10 V; vi) quadruple one (Q1) and (Q3) were set on unit resolution; vii) dwell time was set at 200 msec.
Biomarker stability studies: In a 4-month stability study, fresh urine samples (400 μL) from two subjects were aliquoted into 1.5 mL Eppendorf tubes and stored either at room temperature (22±2° C.), freezer (−13±3° C.) or deep freezer (−77±3° C.) and sampled over four-months.
as §1, §2

[4] = Blood spot stability at room temperature; format: physicochemical, human; conditions: blood spots (Whatman 903) stored at room temperature
Excerpt: as §1

[5] = 4-month biomarker stability study in urine samples; format: physicochemical, human; conditions: PDE urine, −70° C.

Structure (SMILES): O=C1CCC[C@@H](C(=O)O)N1 [6-oxo-PIP, (S)-6-oxopiperidine-2-carboxylic acid]
- stability via four freeze-thaw cycles [1]: stable
- conversion to AAA (hydrolytic ring opening) ([2]; incubation with human S9): none of these experiments showed a conversion
- conversion to AAA (hydrolytic ring opening) ([2]; incubation with human cytosol): none of these experiments showed a conversion
- conversion to AAA (hydrolytic ring opening) ([2]; incubation with human plasma (e.g. esterase activity)): none of these experiments showed a conversion
- concentration ([3]; Room Temperature, Subject 1, day 0): 298 ± 23 µM and 297.0 µM
- concentration ([3]; Room Temperature, Subject 1, day 0, listed as 6-Oxo-PIP): 298 ± 23 µM
- concentration ([3]; Room Temperature, Subject 1, day 1): 294.8 µM
- concentration ([3]; Room Temperature, Subject 1, day 2): 283.5 µM
- concentration ([3]; Room Temperature, Subject 1, day 3): 30.1 µM
- concentration ([3]; Room Temperature, Subject 1, day 5): 257.6 µM
- concentration ([3]; Room Temperature, Subject 1, day 7): 252.1 µM
- concentration ([3]; Room Temperature, Subject 1, day 10): 234.7 µM
- concentration ([3]; Room Temperature, Subject 1, day 14): 233.0 µM
- concentration ([3]; Room Temperature, Subject 1, day 21): 197.5 µM
- concentration ([3]; Room Temperature, Subject 1, day 60): 182.0 µM
- concentration ([3]; Room Temperature, Subject 1, day 126): 170.0 µM
- concentration ([3]; Room Temperature, Subject 2, day 0): 440 ± 4 µM and 440.1 µM
- concentration ([3]; Room Temperature, Subject 2, day 0, listed as 6-Oxo-PIP): 440 ± 4 µM
- concentration ([3]; Room Temperature, Subject 2, day 1): 390.8 µM
- concentration ([3]; Room Temperature, Subject 2, day 2): 418.2 µM
- concentration ([3]; Room Temperature, Subject 2, day 3): 387.7 µM
- concentration ([3]; Room Temperature, Subject 2, day 5): 383.9 µM
- concentration ([3]; Room Temperature, Subject 2, day 7): 346.0 µM
- concentration ([3]; Room Temperature, Subject 2, day 10): 345.2 µM
- concentration ([3]; Room Temperature, Subject 2, day 14): 330.2 µM
- concentration ([3]; Room Temperature, Subject 2, day 21): 322.6 µM
- concentration ([3]; Room Temperature, Subject 2, day 60): 312.3 µM
- concentration ([3]; Room Temperature, Subject 2, day 126): 295.3 µM
- concentration ([3]; −15° C., Subject 1, day 0): 284.8 µM
- concentration ([3]; −15° C., Subject 1, day 3): 243.1 µM
- concentration ([3]; −15° C., Subject 1, day 7): 260.8 µM
- concentration ([3]; −15° C., Subject 1, day 10): 285.1 µM
- concentration ([3]; −15° C., Subject 1, day 14): 219.7 µM
- concentration ([3]; −15° C., Subject 1, day 21): 227.7 µM
- concentration ([3]; −15° C., Subject 1, day 60): 218.4 µM
- concentration ([3]; −15° C., Subject 1, day 126): 211.5 µM
- concentration ([3]; −15° C., Subject 2, day 0): 387.6 µM
- concentration ([3]; −15° C., Subject 2, day 3): 359.0 µM
- concentration ([3]; −15° C., Subject 2, day 7): 345.0 µM
- concentration ([3]; −15° C., Subject 2, day 10): 336.5 µM
- concentration ([3]; −15° C., Subject 2, day 14): 385.3 µM
- concentration ([3]; −15° C., Subject 2, day 21): 345.2 µM
- concentration ([3]; −15° C., Subject 2, day 60): 322.3 µM
- concentration ([3]; −15° C., Subject 2, day 126): 314.3 µM
- concentration ([3]; −70° C., Subject 1, day 0): 284.8 µM
- concentration ([3]; −70° C., Subject 1, day 3): 298.2 µM
- concentration ([3]; −70° C., Subject 1, day 7): 271.9 µM
- concentration ([3]; −70° C., Subject 1, day 10): 221.7 µM
- concentration ([3]; −70° C., Subject 1, day 14): 218.9 µM
- concentration ([3]; −70° C., Subject 1, day 21): 217.4 µM
- concentration ([3]; −70° C., Subject 1, day 60): 211.3 µM
- concentration ([3]; −70° C., Subject 1, day 126): 198.4 µM
- concentration ([3]; −70° C., Subject 2, day 3): 356.4 µM
- concentration ([3]; −70° C., Subject 2, day 7): 329.2 µM
- concentration ([3]; −70° C., Subject 2, day 10): 380.3 µM
- concentration ([3]; −70° C., Subject 2, day 14): 418.3 µM
- concentration ([3]; −70° C., Subject 2, day 21): 320.1 µM
- concentration ([3]; −70° C., Subject 2, day 126): 322.7 µM
- stability at room temperature ([3]; urine samples stored at room temperature (22±2° C.)): considerably more stable than Δ^1-P6C/P6CH; also recorded: measurable for up to four months
- initial decrease within the first two weeks ([3]; urine, regardless of storage temperature): 20-21%
- decrease at 126 days ([3]; urine, subject 1): 43%
- decrease at 126 days ([3]; urine, subject 2): 33%
- signal in blood spots [4]: noted in the initial blood spot
- concentration ([5]; Subject 2, day 0): 387.6 µM
- concentration ([5]; Subject 2, day 60): 340.7 µM

Reference: patent publication US12025596B2, “6-oxo-pipecolic acid quantitation by mass spectrometry” (THE REGENTS OF THE UNIVERSITY OF COLORADO, priority 2018, dated 2024)
